The values below are quoted from earlier work in patent publication US20040197397A1, “Drug delivery system for treatment of urinary incontinence” (Watson Pharmaceuticals, Inc., priority 2002, published 2004).

Structures are written as SMILES.

The conditions of this series: free base.

Turning to `CCN(CC)CC#CCOC(=O)C(O)(c1ccccc1)C1CCCCC1` (stereo not shown) [Oxybutynin free base, Oxybutynin], the pKa is 10.3.
